{
  "source": "paper PMC7948737",
  "about": "“Structures and mechanism of human glycosyltransferase β1,3-N-acetylglucosaminyltransferase 2 (B3GNT2), an important player in immune homeostasis” (The Journal of Biological Chemistry, 2020)",
  "key": {"[1]": {"biological_target": "T1, β1,3-N-acetylglucosaminyltransferase 2 (B3GNT2) (Homo sapiens, UniProt Q9NY97)", "T1 construct": "luminal domain, Lys45-Cys397 (crystal)", "T1 sequence (Q9NY97 45-397)": "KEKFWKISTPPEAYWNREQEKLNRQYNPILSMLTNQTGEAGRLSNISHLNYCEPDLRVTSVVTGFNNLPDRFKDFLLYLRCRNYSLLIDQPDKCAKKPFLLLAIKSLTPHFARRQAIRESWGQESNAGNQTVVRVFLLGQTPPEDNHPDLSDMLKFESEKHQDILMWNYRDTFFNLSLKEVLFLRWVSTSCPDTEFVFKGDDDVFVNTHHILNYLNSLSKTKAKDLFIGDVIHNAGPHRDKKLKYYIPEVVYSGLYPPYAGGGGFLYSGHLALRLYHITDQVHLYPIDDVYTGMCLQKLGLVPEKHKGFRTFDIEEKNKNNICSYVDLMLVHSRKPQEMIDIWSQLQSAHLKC", "test": "crystal structure ([…] Å, soak) and SPR steady-state affinity", "format": "binding"}, "[2]": {"biological_target": "human B3GNT2 luminal domain (construct of the analytical size exclusion chromatography, limits not told) (human)", "test": "SEC; analytical size exclusion chromatography, Superdex 200 10/300, 20 mM Hepes-NaOH pH 7.5 with 150 mM NaCl (buffer C) or 250 mM NaCl, 50 mM imidazole, 1 mM MgCl2, 0.5 mM DTT (buffer D); Bio-Rad molecular weight standards"}, "[3]": {"biological_target": "T1, β1,3-N-acetylglucosaminyltransferase 2 (B3GNT2)", "test": "crystal structure ([…] Å) and SPR steady-state affinity", "format": "binding"}, "[4]": {"biological_target": "T2, β1,3-N-acetylglucosaminyltransferase 2 (B3GNT2) (Homo sapiens, UniProt Q9NY97)", "T2 construct": "luminal domain, Lys45-Cys397 (crystal); Lys29-Cys397 (kinetics)", "T2 sequence (Q9NY97 29-397)": "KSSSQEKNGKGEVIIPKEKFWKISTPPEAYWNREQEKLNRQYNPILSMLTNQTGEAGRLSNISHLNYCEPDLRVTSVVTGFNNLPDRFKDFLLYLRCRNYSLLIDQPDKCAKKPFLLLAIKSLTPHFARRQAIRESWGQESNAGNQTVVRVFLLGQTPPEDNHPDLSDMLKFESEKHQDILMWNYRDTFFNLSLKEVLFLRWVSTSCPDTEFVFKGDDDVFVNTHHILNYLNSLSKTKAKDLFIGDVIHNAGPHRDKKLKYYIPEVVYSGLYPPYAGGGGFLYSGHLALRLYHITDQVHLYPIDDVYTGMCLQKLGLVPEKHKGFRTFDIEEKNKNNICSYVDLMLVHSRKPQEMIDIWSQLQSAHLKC", "test": "crystal structure ([…] Å, soak); binary-complex dissociation constant from UDP-Glo kinetics", "format": "biochemical"}, "[5]": {"biological_target": "the molecule itself", "test": "crystal structure; sitting/hanging-drop vapor diffusion at 4 °C, 24% PEG1500, 20% glycerol; apo, soaked or co-crystallised with UDP, UDP-GlcNAc, LacNAc; dimer related by crystallographic symmetry"}},
  "data": [
    {"molecule": "CC(=O)N[C@H]1[C@@H](OP(=O)(O)OP(=O)(O)OC[C@H]2O[C@@H](n3ccc(=O)[nH]c3=O)[C@H](O)[C@@H]2O)O[C@H](CO)[C@@H](O)[C@@H]1O", "note": "[UDP-GlcNAc]", "values": [
      {"measurement": "Kd", "setting": "[1]", "result": "~140", "unit": "µM"}
    ]},
    {"molecule": "human B3GNT2 luminal domain (construct of the analytical size exclusion chromatography, limits not told) (domain or fragment)", "values": [
      {"measurement": "stoichiometry N", "setting": "[2]", "result": 2}
    ]},
    {"molecule": "O=c1ccn([C@@H]2O[C@H](COP(=O)(O)OP(=O)(O)O)[C@@H](O)[C@H]2O)c(=O)[nH]1", "note": "[UDP]", "values": [
      {"measurement": "Kd", "setting": "[3]", "result": "~260", "unit": "µM"}
    ]},
    {"molecule": "CC(=O)N[C@H]1C(O)O[C@H](CO)[C@@H](O[C@@H]2O[C@H](CO)[C@H](O)[C@H](O)[C@H]2O)[C@@H]1O", "note": "(stereo partly drawn) [LacNAc]", "values": [
      {"measurement": "Kd", "setting": "[4]", "result": "8990 ± 1750", "unit": "µM"}
    ]},
    {"molecule": "human B3GNT2 luminal domain (Lys45–Cys397) (domain or fragment, UniProt Q9NY97 45-397, looked up, N-glycans assigned at Asn127, Asn173 and Asn219, human B3GNT2 (β-1,3-N-acetylglucosaminyltransferase 2), UniProt Q9NY97, luminal domain, residues Lys45–Cys397; Expressed with an N-terminal gp64 secretion signal peptide; 8×His tag cleaved by TEV protease; Used for all structures except the iodide derivative; also called B3GNT2 Lys45-Cys397; B3GNT2_apo; source: sf9 cells (baculovirus), secreted into medium, purified (Ni-NTA, size exclusion …)) KEKFWKISTPPEAYWNREQEKLNRQYNPILSMLTNQTGEAGRLSNISHLNYCEPDLRVTSVVTGFNNLPDRFKDFLLYLRCRNYSLLIDQPDKCAKKPFLLLAIKSLTPHFARRQAIRESWGQESNAGNQTVVRVFLLGQTPPEDNHPDLSDMLKFESEKHQDILMWNYRDTFFNLSLKEVLFLRWVSTSCPDTEFVFKGDDDVFVNTHHILNYLNSLSKTKAKDLFIGDVIHNAGPHRDKKLKYYIPEVVYSGLYPPYAGGGGFLYSGHLALRLYHITDQVHLYPIDDVYTGMCLQKLGLVPEKHKGFRTFDIEEKNKNNICSYVDLMLVHSRKPQEMIDIWSQLQSAHLKC", "values": [
      {"measurement": "binding result", "setting": "[5]", "result": "binds"}
    ]},
    {"molecule": "human B3GNT2 luminal domain (Ser31–Cys397) (domain or fragment, UniProt Q9NY97 31-397, looked up, N-glycans assigned at Asn127, Asn173 and Asn219, human B3GNT2 (β-1,3-N-acetylglucosaminyltransferase 2), UniProt Q9NY97, luminal domain, residues Ser31–Cys397; Expressed with an N-terminal gp64 secretion signal peptide; 8×His tag cleaved by TEV protease; Used for the iodide derivative structure (SAD phasing, 2.50 Å); also called B3GNT2 Ser31-Cys397; iodide derivative; source: sf9 cells (baculovirus), secreted into medium, purified (Ni-NTA, size …)) SSQEKNGKGEVIIPKEKFWKISTPPEAYWNREQEKLNRQYNPILSMLTNQTGEAGRLSNISHLNYCEPDLRVTSVVTGFNNLPDRFKDFLLYLRCRNYSLLIDQPDKCAKKPFLLLAIKSLTPHFARRQAIRESWGQESNAGNQTVVRVFLLGQTPPEDNHPDLSDMLKFESEKHQDILMWNYRDTFFNLSLKEVLFLRWVSTSCPDTEFVFKGDDDVFVNTHHILNYLNSLSKTKAKDLFIGDVIHNAGPHRDKKLKYYIPEVVYSGLYPPYAGGGGFLYSGHLALRLYHITDQVHLYPIDDVYTGMCLQKLGLVPEKHKGFRTFDIEEKNKNNICSYVDLMLVHSRKPQEMIDIWSQLQSAHLKC", "values": [
      {"measurement": "binding result", "setting": "[5]", "result": "binds"}
    ]}
  ]
}
